Earlier results in patent US11896953B2, “HLB copolymers” (Sigma-Aldrich Co. LLC, priority 2017, dated 2024).

Conditions: 20-analyte mix for extended screening (Table 22)

SMILES	Log P
CCc1nn(CCCN2CCN(c3cccc(Cl)c3)CC2)c(=O)n1CCOc1ccccc1 [Nefazodone]	4.70
CN(C)CCC=C1c2ccccc2CCc2ccccc21 [Amitriptyline]	5.10
CN1CCN2c3ncccc3Cc3ccccc3C2C1 (centres unmarked) [Mirtazapine]	2.90
N=C(N)NC(=O)c1nc(Cl)c(N)nc1N [Amiloride]	−0.30
CN1CCN2c3ccccc3Cc3ccccc3C2C1 (centres unmarked) [Mianserin]	3.52
Cc1ccnc2c1NC(=O)c1cccnc1N2C1CC1 [Nevirapine]	2.50
CNC(=C[N+](=O)[O-])NCCSCc1csc(CN(C)C)n1 [Nizatidine]	1.10
CC[C@H]1OC(=O)[C@H](C)[C@@H](O[C@H]2C[C@@](C)(OC)[C@@H](O)[C@H](C)O2)[C@H](C)[C@@H](O[C@@H]2O[C@H](C)C[C@H](N(C)C)[C@H]2O)[C@](C)(OC)C[C@@H](C)C(=O)[C@H](C)[C@@H](O)[C@]1(C)O [Clarithromycin]	3.16
O=[N+]([O-])NC1=NCCN1Cc1ccc(Cl)nc1 [Imidacloprid]	0.57
CN(C)CCN(Cc1cccs1)c1ccccn1 [Methapyrilene]	2.87
CN1[C@H]2CC[C@@H]1[C@@H](C(=O)O)[C@@H](OC(=O)c1ccccc1)C2 [Benzoylecgonine]	1.71
CCCCc1nc(Cl)c(CO)n1Cc1ccc(-c2ccccc2-c2nn[nH]n2)cc1 [Losartan]	6.10
CN1CCCCC1CCN1c2ccccc2Sc2ccc([S+](C)[O-])cc21 (centres unmarked) [Mesoridazine]	3.90

Same assay, conditions: analytes of the six analyte preliminary screen (Table 18)

SMILES	Log P
Oc1ccc2ccc(O)cc2c1 [2,7-dihydroxynaphthalene]	2.3
Cc1ccc(C(N)=O)cc1 [p-Toluamide]	1.2

Same assay, conditions: eight analytes of the 3-step protocol evaluations (Table 25)

SMILES	Log P
CNCCCC1c2ccccc2C=Cc2ccccc21 [Protriptyline]	4.70

Same assay, conditions: hydrophilic monomers

SMILES	log P
C=CC#N [acrylonitrile]	0.25
